# Patent US20090124608A1, “CB2 Receptor Modulators In Neurodegenerative Diseases And Applications Of The Same” (priority 2006, published 2009)
# Entries after “also recorded” stand apart in the source; their conditions may differ.
# Assays:
# CB1 receptors [1] = conditions: Yao et al. 2006; read-out: affinity for CB1 receptors; cited from earlier work
# cannabinoid receptors = experiment: GTPγS binding in end stage spinal cord homogenates from G93A-SOD1 mice, separated by gender; assay type: biochemical, mouse; conditions: for 2-AG stimulated G-protein activation remaining on co-incubation with CB2 ligand: 2-AG 3 μM; for 2-AG stimulated G-protein activation remaining on co-incubation with CB2 ligand / HU-210 stimulated G-protein activation remaining on co-incubation with CB2 ligand: ligand 1 μM; for HU-210 stimulated G-protein activation remaining on co-incubation with CB2 ligand: HU-210 100 nM
# Experimental: (§1) [^35S]GTPγS binding assays were performed as described previously (Prather et al. 2000a) in a buffer containing 20 mM Hepes, 100 mM NaCl, and 10 mM MgCl2 at pH 7.4. Each binding reaction contained 10 μg of spinal cord membrane protein, the presence or absence of cannabinoid ligands (see following), plus 0.1 nM [^35S]GTPγS (1250 Ci/mmol, Perkin Elmer Life and Analytical Sciences) and […] of GDP to suppress basal G-protein activation. Reactions were incubated for 2 hrs at 30 °C. Non-specific binding was defined by binding observed in the presence of 10 μM of non-radioactive GTPγS. The reaction was terminated by rapid vacuum filtration through glass fiber filters followed by two washes with ice-cold assay buffer. 4 mL of scintiverse® (Fisher Scientific) was added to the filters and radioactivity quantified by scintillation counting.
# Harvested spinal cords from the vehicle treated control groups at the end-stage of their disease were separated by gender and used to conduct GTP7S binding experiments, which measure the capability of a ligand to promote or suppress G-protein activation.
# It was next determined if the selective CB2 ligands antagonize G-protein activation produced by an endocannabinoid such as 2-AG as well.
# [2] = Water solubility and dissolution in vehicles
# CB1 and CB2 receptors = experiment: [35S]GTPγS binding with selective agonists in mouse spinal cord membranes; assay type: biochemical; conditions: data not shown
# Experimental: as §1
# We initially attempted to compare CB 1 and CB2 receptor activation of G-proteins between WT-OE and G93A spinal cord membranes by conducting [^35S]GTPγS binding assays in the presence of selective agonists.
# G93A-SOD1 mice [3] = experiment: Motor function test (clinging to perpendicular wire mesh screen for 60 seconds) in G93A mice; assay type: in vivo, mouse
# Experimental: Beginning on the first day of observing symptoms, mice were tested for motor function biweekly until sacrifice. Motor function testing was initiated by gently placing animals on a horizontal wire mesh screen. The screen was slowly rotated to be perpendicular to the ground (90°). The duration that mice were able to hang onto the perpendicular wire mesh up to a maximum of 120 seconds was recorded. Because vehicle treated mice on average lost the ability to cling to the wire mesh for 60 seconds in the middle of their survival curve, this “all or none” response was utilized to compare motor function across all treatment groups. Kaplan-Meier time-to-event statistics were employed to analyze the data. The event was defined as the number of days after symptom onset that each individual animal was no longer able to cling to the wire mesh screen for 60 seconds.
# Testing twice a week for the duration of the study provided a quantifiable decline during disease progression. Mice were placed on a horizontal wire mesh screen that was gently inverted to 90°. Kaplan-Meier time-to-event curves were used to analyze the data. The event was defined as the day each animal was no longer able to cling to the perpendicular screen for 60 seconds. […] The disparity between male and female motor function was paralleled by the interval between survival for the genders. Male mice survived an average of 39.6±2.0 (FIG. 6a) days past the onset of symptoms, while females lived 9 days longer than males (p<0.0018*, FIG. 6b). For males and females, loss of motor function preceded death by 20.5 (p<0.0002***) and 19.0 days (p<0.0028**), respectively.
# CB2 receptors = CB2 receptors (Homo sapiens, UniProt P34972); conditions: Yao et al. 2006, cited from earlier work
# G93A-SOD1 mice [4] = experiment: Survival of G93A mice, daily i.p. treatment initiated at symptom onset; assay type: in vivo, mouse; conditions: for survival interval (symptom onset to sacrifice): vehicle 23.7+/−1.7 days; for Survival Interval Ratio (SIR) / Total Life-Span Ratio (TLR): G93A mice, i.p. daily from onset
# Description: Hemizygous transgenic male mice with the G93A mutation of the human SOD1 gene (G1H/1) mutation (B6SJL-TgN (SOD1-G93A) 1 Gur) were obtained from Jackson Laboratories and were bred locally with female B6SJL mice (Jackson Laboratory), according to the protocol obtained from the vendor. To decrease the inherent variability in disease onset and survival with these mice, littermate transgenic males (rather than random males from several different litters) were selected to sire subsequent generations of mice.
# Determination of symptom onset, randomization and drug treatment of G93A mice. Symptom onset was assessed by blinded observation of changes in hind limb gait; these changes are related to the mouse's inability to support its weight on its hind limbs. At onset, mice initially place their weight on the toes and then quickly fall to full foot placement (as opposed to healthy mice which walk and run on the hind toes); this “toe-to-heel” walking pattern produces an asymmetric gait between hind and fore limbs and a characteristic “wobbling” gait. Mouse groups were randomized based on symptom onset and alternately placed in control and treated groups, e.g., the first mouse to develop hind limb weakness was placed in the control group, the second was injected with test compound and placed in the treatment group, and so on. […] By definition, the onset administration paradigm employed was focused on what we term the “survival interval”—namely the time from onset to end-stage sacrifice.
# Mice were sacrificed when any of the following criteria were met: (1) inability to right themselves within 30 seconds when placed on their sides; (2) inability to eat or drink, or move toward food and water placed in low-rimmed dishes on cage floor; (3) loss of more than 10% of total body weight in 24 hours; (4) gross loss of grooming behavior; or (5) labored breathing. Criteria for death were confirmed by a second investigator who is blinded to the group identity of each mouse. The age of symptom onset was subtracted from the age at death for each mouse, and a mean survival interval was calculated for each group. By calculating the ratio of the survival interval of treated groups to the survival interval of untreated littermate controls, a X-fold increase in survival was readily determined.
# The effect of chronic administration of cannabinoids on the survival of G93A mice was next examined (FIG. 4). […] The number of days between symptom onset and animal sacrifice was measured (e.g., survival interval). In humans, this is analogous to the time between diagnosis of ALS and death, ranging from 2-5 years.
# CB1 receptors [5] = biological target: T1, CB1 receptors (Mus musculus, UniProt P47746); experiment: Antagonism of HU-210 G-protein activation in mouse cortex membranes; assay type: biochemical; conditions: cortical membranes, HU-210 100 nM
# T1 construct: employing membranes prepared from mouse cortex as a relatively pure source of CB1 receptors; from tissue; host or cells: mouse cortex
# Description: This was accomplished by antagonism experiments employing membranes prepared from mouse cortex as a relatively pure source of CB1 receptors.
# CB1/CB2 receptors [6] = experiment: [35S]GTPγS binding, selective antagonism of HU-210, WT-OE spinal cord membranes; assay type: biochemical, mouse; conditions: antagonist 3 μM
# CB1/CB2 receptors [7] = experiment: [35S]GTPγS binding, selective antagonism of HU-210, G93A spinal cord membranes; assay type: biochemical, mouse; conditions: antagonist 3 μM
# G93A-SOD1 mice [8] = conditions: administration after the onset of symptoms; Raman et al. 2004, Weydt et al. 2005; cited from earlier work
# [9] = daily injections initiated at symptom onset
# [10] = WT-OE spinal cord membranes, HU-210 100 nM
# [11] = G93A spinal cord membranes, HU-210 100 nM
# Chain of CB2 receptors (P34972 whole entry): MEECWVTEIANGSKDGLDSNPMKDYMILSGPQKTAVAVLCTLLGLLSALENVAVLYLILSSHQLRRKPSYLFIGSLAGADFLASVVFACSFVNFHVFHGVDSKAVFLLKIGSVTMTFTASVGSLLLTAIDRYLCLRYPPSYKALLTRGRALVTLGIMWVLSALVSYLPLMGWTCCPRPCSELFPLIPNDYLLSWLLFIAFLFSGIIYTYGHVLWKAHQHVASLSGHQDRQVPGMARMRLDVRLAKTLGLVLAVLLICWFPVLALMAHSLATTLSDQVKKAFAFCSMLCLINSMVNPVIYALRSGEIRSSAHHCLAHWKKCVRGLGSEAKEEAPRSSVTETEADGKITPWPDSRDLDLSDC
# T1 sequence (P47746 whole entry): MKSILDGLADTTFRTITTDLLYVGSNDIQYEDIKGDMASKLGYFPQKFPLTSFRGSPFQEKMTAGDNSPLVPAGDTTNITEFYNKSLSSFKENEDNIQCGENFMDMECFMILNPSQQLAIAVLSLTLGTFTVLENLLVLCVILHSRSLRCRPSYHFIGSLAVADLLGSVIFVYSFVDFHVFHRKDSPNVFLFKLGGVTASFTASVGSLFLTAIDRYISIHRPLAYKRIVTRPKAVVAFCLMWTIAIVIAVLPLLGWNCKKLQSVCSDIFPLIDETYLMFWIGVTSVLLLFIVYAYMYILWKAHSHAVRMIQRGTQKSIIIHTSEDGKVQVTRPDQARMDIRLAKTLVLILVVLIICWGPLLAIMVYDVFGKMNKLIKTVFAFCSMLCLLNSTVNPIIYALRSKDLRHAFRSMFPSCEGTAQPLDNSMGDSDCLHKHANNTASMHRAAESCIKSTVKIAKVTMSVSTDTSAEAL
smiles,measurement,setting,value
"CN1CCCCC1Cn1cc(C(=O)c2cc([N+](=O)[O-])ccc2I)c2ccccc21 (racemic) [AM-1241, (R,S)-(+)-(2-Iodo-5-nitrobenzoyl)-[1-(1-methyl-piperidin-2-ylmethyl-1H-indole-3-yl]methanone]",Ki,CB1 receptors [1],580 nM
same,2-AG stimulated G-protein activation remaining on co-incubation with CB2 ligand,cannabinoid receptors; female homogenate,11.62±2.2 fmole/mg protein
same,HU-210 stimulated G-protein activation remaining on co-incubation with CB2 ligand,cannabinoid receptors; female homogenates,19.89±1.5 fmole/mg protein
same,2-AG stimulated G-protein activation remaining on co-incubation with CB2 ligand,cannabinoid receptors; male homogenate,9.09±52.1 fmole/mg protein
same,HU-210 stimulated G-protein activation remaining on co-incubation with CB2 ligand,cannabinoid receptors; male homogenates,9.73±2.5 fmole/mg protein
same,effect on G-protein activation,cannabinoid receptors; male spinal cord,relatively small decrease in G-protein activation
same,water solubility,[2],very poor water solubility
same,stable dissolution in tested vehicles,"[2]; ethanol/water, glycerol, polyethylene glycol, high purity olive oil tested",achieved only with olive oil
same,G-protein activation by selective agonist,CB1 and CB2 receptors,"failed attempts to demonstrate consistent, measurable G-protein activation; also recorded: unable to demonstrate consistent, measurable G-protein activation"
same,"improvement in motor function versus vehicle, females","G93A-SOD1 mice [3]; female G93A mice, time to loss of ability to cling 60 seconds",37%
same,"interval between mean loss of motor function and death, females","G93A-SOD1 mice [3]; female mice, vehicle 19.0 days",9.0 days
same,"improvement in motor function versus vehicle, males","G93A-SOD1 mice [3]; male G93A mice, time to loss of ability to cling 60 seconds",81%
same,"loss of motor function, days after observation of symptoms","G93A-SOD1 mice [3]; male mice, vehicle 19.1±3.9 days",34.5 ± 5.5 days
same,"interval between mean loss of motor function and death, males","G93A-SOD1 mice [3]; male mice, vehicle 20.5 days",12.8 days
same,higher affinity for CB2 relative to CB1,CB2 receptors,> 80 fold
same,Ki,CB2 receptors; read-out: affinity for CB2 receptors,7 nM
same,increase in survival interval versus vehicle,G93A-SOD1 mice [4]; 0.3 mg/kg daily i.p.,9.7 days
same,survival interval (symptom onset to sacrifice),G93A-SOD1 mice [4]; 0.3 mg/kg daily i.p.,33.4 ± 2.2 days
same,increase in survival interval versus vehicle,G93A-SOD1 mice [4]; 3 mg/kg daily i.p.,13.2 days
same,survival interval (symptom onset to sacrifice),G93A-SOD1 mice [4]; 3 mg/kg daily i.p.,36.9 ± 2.8 days
same,Survival Interval Ratio (SIR),G93A-SOD1 mice [4]; 0.3 mg/kg,1.41
same,Total Life-Span Ratio (TLR),G93A-SOD1 mice [4]; 0.3 mg/kg,1.07
same,Survival Interval Ratio (SIR),G93A-SOD1 mice [4]; 3.0 mg/kg,1.56
same,Total Life-Span Ratio (TLR),G93A-SOD1 mice [4]; 3.0 mg/kg,1.11
same,extension of total life-span versus controls,G93A-SOD1 mice [4]; [9],11%
same,living longer after symptom onset than controls (survival interval increase),G93A-SOD1 mice [4]; [9],56%
same,"survival improvement versus vehicle, females","G93A-SOD1 mice [4]; female G93A mice, 3 mg/kg for AM-1241 and AM630, JTE-907 dose not given",did not live significantly longer
same,"survival improvement versus vehicle, males","G93A-SOD1 mice [4]; male G93A mice, 3 mg/kg for AM-1241 and AM630, JTE-907 dose not given",19%
same,effect on survival of G93A-SOD1 mice,G93A-SOD1 mice [4]; treatment initiated at symptom onset,pronounced increase in survival
"COc1ccc2c(c1)c(CCN1CCOCC1)c(C)n2C(=O)c1cccc(Cl)c1Cl [GW-405833, (2,3-dichloro-phenyl)-[5-methoxy-2-methyl-3-(2-morpholin-4-yl-ethyl)-indol-1-yl]-methanone]",G-protein activation by selective agonist,CB1 and CB2 receptors,"failed attempts to demonstrate consistent, measurable G-protein activation; also recorded: unable to demonstrate consistent, measurable G-protein activation"
"CC1=CC[C@@H]2[C@@H](C1)c1ccc(CC#CCCCNS(C)(=O)=O)cc1OC2(C)C [O-2050, (6aR,1OaR)-3-(1-Methanesulfonylamino-4-hexyn-6-yl)-6a,7,10,10a-tetrahydro-6,6,9-trimethyl-6H-dibenzo[b,d]pyran]",minimal concentration required to completely block HU-210-mediated G-protein activation by CB1 receptors,CB1 receptors [5],3 μM
same,net reduction of HU-210-induced G-protein activation,CB1/CB2 receptors [6]; WT-OE membranes,28.3 fmoles/mg protein
same,% blockade of HU-210-induced G-protein activation,CB1/CB2 receptors [6]; [10],92%
same,HU-210 stimulated [35S]GTPγS binding remaining on co-incubation with antagonist,CB1/CB2 receptors [6]; [10],2.5±0.8 fmole/mg protein
same,net reduction of HU-210-induced G-protein activation,CB1/CB2 receptors [7]; G93A membranes,25.9 fmole/mg protein
same,% blockade of HU-210-induced G-protein activation,CB1/CB2 receptors [7]; [11],45%
same,HU-210 stimulated [35S]GTPγS binding remaining on co-incubation with antagonist,CB1/CB2 receptors [7]; [11],31.5±4.4 fmole/mg protein
same,% blockade of HU-210-induced G-protein activation,"CB1/CB2 receptors [7]; G93A spinal cord membranes, HU-210 100 nM, listed as 0-2050",46%
CCCCCc1cc(O)c2c(c1)OC(C)(C)c1ccc(C)cc1-2 [cannabinol],delaying motor impairment and prolonging survival in G93A mice,G93A-SOD1 mice [8],minimally successful
"CCCCCc1cc(O)c2c(c1)OC(C)(C)[C@@H]1CCC(C)=C[C@@H]21 [Δ^9-THC, Δ^9-Tetrahydrocannabinol]",delaying motor impairment and prolonging survival in G93A mice,G93A-SOD1 mice [8],minimally successful
